Laboratory results as given in patent US7956065B2, “Pharmaceutical compounds” (Biovail Laboratories International (Barbados) S.R.L., priority 2008, dated 2011).
Entries after “also recorded” stand apart in the source; their conditions may differ. Counter-ions that a name gives are not always drawn. Like-named read-outs stand apart in the source and are kept apart here.

Columns and labels:
[1] = system: PCP-induced cognitive deficit in the retention phase of the NOR task in female rats; conditions: cited from earlier work; for cognitive deficit in the retention phase of the NOR task: female rats
[2] = system: sub-chronic PCP-induced deficits in working memory in female hooded-Lister rats; assay: Novel object recognition (NOR) task after sub-chronic PCP treatment; type: in vivo, rat
Description: One of the symptoms of dementia is the progressive development of a cognitive deficit. Certain pre-clinical tests allow the observation of relatively subtle cognitive deficits in the rat. The cognitive deficits observed are seen in behaviours such as working memory deficits which may be measured by recognition tasks such as the novel object recognition (NOR) paradigm. A recognition memory task allows the comparison between presented stimuli and previously stored information. Ennaceur & Delacour, Behav. Brain Res. 31: 47-59 (1988) described the NOR test in rats which was based on the differential exploration of familiar and new objects. The NOR test is a non-rewarded, ethologically relevant paradigm based on the spontaneous exploratory behaviour of rats which measures working memory. Each session consists of two trials. In the first trial, the rats are exposed to two identical objects in an open field. During the second trial, rats are exposed to two dissimilar objects, one familiar object from the first trial and one new object. Object recognition in rats can be measured as the difference in time spent exploring the familiar and the new object. […] The duration of each trial is also important as a preference for the novel object only lasts during the first 1 or 2 minutes, after which time preference diminishes as both objects become familiar and are explored equally.
The abovementioned rodent model was used to assess the effects of the Isomer A on sub-chronic PCP-induced deficits in working memory using the novel object recognition (NOR) paradigm. The working hypothesis was that both acute and sub-chronic treatment with Isomer A will attenuate the selective working memory deficit induced by sub-chronic PCP as measured in the NOR test paradigm.
Rats are allowed to habituate to the empty test box and the behavioural test room environment for 1 hour on day 1. Prior to behavioural testing on day 2 rats are given a further 3 minutes habituation.
Following the 3 minute habituation period, the rats are given two 3 minute trials (T1 and T2) which are separated by a 1 minute inter-trial interval in the home cage during which the objects are changed.
In this trial, the animals are allowed to explore two identical objects (A1 and A2) for 3 minutes.
In this trial, the animals explore a familiar object (A) from T1 and a novel object (B) for 3 minutes. The familiar object presented during T2 is a duplicate of the object presented in T1 in order to avoid any olfactory trails.
The object exploration is defined by animals licking, sniffing or touching the object with the forepaws whilst sniffing, but not leaning against, turning around, standing or sitting on the object. The exploration time (s) of each object (A1, A2, A and B) in each trial are recorded using two stopwatches and the following factors are calculated: • Total exploration time of both objects in the acquisition trial(s). • Total exploration time of both objects in the retention trial(s). • Habituation of exploratory activity. The LMA includes the exploration time, as measured by the number of lines crossed, for both the trials. • Discrimination index, which is calculated as shown below; (time spent exploring novel object−time spent exploring familiar object)÷total time spent in exploring the objects
Behaviour in all trials was recorded on video for subsequent blind scoring.
50 female hooded-Lister rats (Harlan, UK) were used as subjects for these studies. Rats were housed in groups of 5 under standard laboratory conditions under a 12 hr light:dark cycle, lights on at 0700 hr. All testing was carried out in the light phase. Food and water were freely provided. All experiments were conducted in accordance with the Animals Scientific Procedures Act, U.K. 1986 and were approved by the University of Bradford ethical review panel.
Rats were randomly assigned to two treatment groups and treated with vehicle, n=10 (distilled water, ip) or PCP, n=40 (2 mg/kg, ip) twice daily for 7 days. […]

## O=C(CCCN1CCC(O)(c2ccc(Cl)cc2)CC1)c1ccc(F)cc1 [haloperidol]
[1]; haloperidol 0.05-0.075 mg/kg
  improvement of deficit induced by sub-chronic PCP in NOR paradigm: not

## COc1cc2c(cc1OC)[C@@H]1C[C@@H](O)[C@H](CC(C)C)CN1CC2 (single isomer, unassigned) [Isomer A]
[2]; Isomer A 30 mg/kg p.o.
  sedation (observation of the behaviour of the rats): did not appear sedated
[2]; Isomer A 30 mg/kg p.o. (highest dose), FIG. 2
  improvement of PCP-induced working memory deficit in retention phase of NOR task, statistical significance: significant at the highest dose
[2]; Isomer A 30 mg/kg p.o., compared with vehicle control group, FIG. 4
  locomotor activity in the test arena (number of lines crossed, T1 and T2): significant effect to reduce locomotor activity
[2]; Isomer A 30 mg/kg p.o., did not reach statistical significance, FIG. 3
  discrimination index (DI) in sub-chronic PCP treated rats: improved
[2]; Isomer A 3.0-30 mg/kg p.o., FIG. 1
  exploration of two identical objects in the acquisition phase (T1): no effect
[2]; acute Isomer A 3-30 mg/kg p.o., 30 min before testing, sub-chronic PCP 2 mg/kg i.p. twice daily for 7 days then 7 days washout, FIG. 2
  attenuation of sub-chronic PCP-induced deficit in retention trial (exploration time of familiar vs novel object): has efficacy to attenuate the sub-chronic PCP-induced deficit; also recorded: selective for the retention phase of the NOR task; also recorded: counteracted the effects of sub-chronic administration of phencyclidine hydrochloride (PCP)

## Cc1nc2n(c(=O)c1CCN1CCC(c3noc4cc(F)ccc34)CC1)CCCC2 [risperidone, reference compound]
[2]; risperidone 0.2 mg/kg i.p., 30 min before testing, FIG. 2
  attenuation of sub-chronic PCP-induced deficit in retention trial: attenuate the sub-chronic PCP-induced deficit
[2]; risperidone 0.2 mg/kg i.p., did not reach statistical significance, FIG. 3
  discrimination index (DI) in sub-chronic PCP treated rats: improved

## c1ccc(C2(N3CCCCC3)CCCCC2)cc1 [PCP, Phencyclidine hydrochloride]
[1]; acute PCP 0.5-2.0 mg/kg ip
  cognitive deficit in the retention phase of the NOR task: produce a selective cognitive deficit
[1]; sub-chronic PCP 2 mg/kg i.p. twice daily for 7 days followed by 7 days drug-free period
  cognitive deficit in the retention phase of the NOR task: produce a selective cognitive deficit
[2]; PCP 2 mg/kg i.p. twice daily for seven days, did not reach statistical significance, FIG. 3
  discrimination index (DI) after sub-chronic PCP treatment: induced a reduction in the discrimination index
